Measured values as given in patent publication US10219794B2, “Method of treating pleural abnormality” (National Taiwan University, priority 2014, dated 2019).

System: TC-1 cell line (mouse lung cancer cell line)
Format: cell-based
Conditions: TC-1 cells, released from PCL membrane
Protocol: In one embodiment, the drug release rates of different kinds of the biodegradable polymeric membrane were tested. There were 6 experimental groups and 1 control group. Control group: TCPS (Tissue Culture Polystyrene); experimental group 1: the non-porous PCL membrane without any drugs; experimental group 2: the non-porous PCL membrane with 1 μg/ml of Cisplatin (0.3 μg/well); experimental group 3: the non-porous PCL membrane with 10 μg/ml of Cisplatin (3 μg/well); experimental group 4: the porous PCL membrane without any drugs; experimental group 5: the porous PCL membrane with 1 μg/ml of Cisplatin (0.3 μg/well); and experimental group 6: the porous PCL membrane with 10 μg/ml of Cisplatin (3 μg/well). The pores of the above porous PCL membrane were created by 0.01 g/mL of NaCl.
In this embodiment, different kinds of membranes with drugs were cultured in TC-1 cell line (mouse lung cancer cell line) for three days, and the cell growth and cytotoxicity were measured by using AlamarBlue™. The absorbance was at 570 nm and 600 nm as the background.

`N.N.[Cl][Pt][Cl]` [cisplatin] was tested, and the killing cancer cells was “capability of killing cancer cells”.
